Where two headings read alike, the source gives them in different places.
Experiments:
Assay type in all cases: biochemical
[1] = biological target: T1, puromycin-sensitive aminopeptidase (APP-S) (Homo sapiens, UniProt P55786); experiment: chromogenic hydrolysis kinetics at […] nm with purified recombinant enzyme
[2] = biological target: T1, puromycin-sensitive aminopeptidase (APP-S)
[3] = biological target: T1, puromycin-sensitive aminopeptidase (APP-S); experiment: inhibition of purified recombinant APP-S hydrolysis of Ala-pNA/Val-pNA

T1 sequence (P55786 whole entry): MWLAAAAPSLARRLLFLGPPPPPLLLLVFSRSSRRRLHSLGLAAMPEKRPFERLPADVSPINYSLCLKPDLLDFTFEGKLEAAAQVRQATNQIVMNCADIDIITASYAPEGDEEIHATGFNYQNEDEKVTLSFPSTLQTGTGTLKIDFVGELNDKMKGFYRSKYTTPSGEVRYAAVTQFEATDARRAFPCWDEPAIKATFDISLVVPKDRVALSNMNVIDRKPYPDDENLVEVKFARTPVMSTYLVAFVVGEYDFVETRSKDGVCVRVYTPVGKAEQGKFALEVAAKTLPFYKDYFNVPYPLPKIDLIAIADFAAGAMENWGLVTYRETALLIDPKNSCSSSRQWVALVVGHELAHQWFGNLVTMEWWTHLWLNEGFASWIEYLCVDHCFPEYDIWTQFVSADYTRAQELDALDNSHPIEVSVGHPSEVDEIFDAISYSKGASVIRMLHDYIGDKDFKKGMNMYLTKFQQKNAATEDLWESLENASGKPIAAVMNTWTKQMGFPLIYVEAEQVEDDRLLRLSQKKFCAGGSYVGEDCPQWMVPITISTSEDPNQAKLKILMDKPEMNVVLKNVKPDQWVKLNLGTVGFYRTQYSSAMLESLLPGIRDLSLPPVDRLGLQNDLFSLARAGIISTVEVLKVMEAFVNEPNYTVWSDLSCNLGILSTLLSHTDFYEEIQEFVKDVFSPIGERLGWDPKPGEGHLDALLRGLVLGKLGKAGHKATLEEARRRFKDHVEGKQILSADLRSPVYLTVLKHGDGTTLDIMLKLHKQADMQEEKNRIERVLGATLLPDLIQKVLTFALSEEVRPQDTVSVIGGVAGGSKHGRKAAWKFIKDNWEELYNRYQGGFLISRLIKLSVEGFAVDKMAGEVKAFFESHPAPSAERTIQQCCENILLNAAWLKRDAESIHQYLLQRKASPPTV

Row | Structure (SMILES) | Km [1] [µM] | other results
1 | C[C@H](N)C(=O)Nc1ccc([N+](=O)[O-])cc1 [Ala-pNA] | 510 ± 140 | 
2 | COC(=O)[C@H](CO[P@@]1(=O)COC(Cn2ccc(N)nc2=O)CO1)NC(=O)[C@@H](N)C(C)C (stereo partly drawn) [compound 2, Methyl (S)-2-((S)-2-Amino-3-methyl-butyrylamino)-3-[(S)-5-(4-amino-2-oxo-2H-pyrimidin-1-ylmethyl)-2-oxido-1,4,2-dioxaphosphinan-2-yloxy]propanoate] |  | Km [2]: 850 ± 330 µM
3 | CC(C)C[C@H](NC(=O)[C@@H](O)[C@H](N)Cc1ccccc1)C(=O)O [bestatin] |  | inhibition of purified recombinant APP-S hydrolysis of Ala-pNA/Val-pNA (405 nm) [3]: APP-S hydrolysis of the model substrates was completely inhibited by the addition of bestatin.
4 | CC(C)[C@H](N)C(=O)Nc1ccc([N+](=O)[O-])cc1 [Val-pNA] | 280 ± 190 | 
